{"source": "paper PMC5860131", "about": "“Identification of natural products as novel ligands for the human 5-HT2C receptor” (Biophysics Reports, 2018)", "key": {"5-HT2C receptor [1]": {"target": "T1, 5-HT2C receptor (Homo sapiens, UniProt P28335, DEL255-298/G251D/H250E/H252N/INS299[…]/L248D/M247A/M300L/T253W)", "T1 construct": "the N- and C-terminals were truncated by 39 and 65 residues, respectively; FLAG (N); PreScission protease site + 10× His (C); made in house; host or cells: Spodoptera frugiperda (Sf9), baculovirus", "T1 sequence (P28335 with tags, fused parts or gaps with the stated changes limits assumed)": "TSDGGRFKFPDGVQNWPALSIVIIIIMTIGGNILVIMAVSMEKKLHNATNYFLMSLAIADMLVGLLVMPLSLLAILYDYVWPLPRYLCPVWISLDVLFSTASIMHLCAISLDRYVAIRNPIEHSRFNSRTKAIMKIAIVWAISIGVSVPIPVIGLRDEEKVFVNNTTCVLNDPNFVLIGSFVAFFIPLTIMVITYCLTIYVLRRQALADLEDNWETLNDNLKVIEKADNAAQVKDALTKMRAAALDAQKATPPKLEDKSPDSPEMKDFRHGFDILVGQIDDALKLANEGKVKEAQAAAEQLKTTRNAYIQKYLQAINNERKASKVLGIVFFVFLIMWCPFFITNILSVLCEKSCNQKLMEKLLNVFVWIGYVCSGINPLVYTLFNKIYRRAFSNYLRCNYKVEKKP", "assay_type": "binding"}, "5-HT2C receptor [2]": {"target": "T1, 5-HT2C receptor", "assay_type": "binding", "remark": "listed apart in the source"}, "5-HT2A receptor": {"target": "T2, 5-HT2A receptor (Homo sapiens, UniProt P28223)", "T2 construct": "expressed in transfected cells; host or cells: HEK 293T, stably transfected", "assay": "Ca2+ mobilization assay (Fluo-4, FLIPR), HEK 293T cells stably transfected with 5-HT2A", "assay_type": "cell-based", "from_the_text": "The 5-HT2C receptor mainly couples to Gαq proteins. The activated 5-HT2C receptor transmits the signals from the extracellular to the intercellular side using DAG/IP3 (diacyl glycerol/inositol 1,4,5-trisphosphate) as its second massagers (Hannon and Hoyer [2008]). IP3 stimulates the endoplasmic reticulum to release calcium ions into the cytoplasm, which causes the increase of calcium concentration in cytosol. Therefore, calcium mobilization assay is commonly applied to understand how unknown small molecule ligands of 5-HT2C receptor modulate cellular signal transductions. In this case, Fluo-4 Direct dye was used as a fluorescence indicator to detect calcium flux in G protein-coupled receptor expressed cells. The fold of maximum response over average of basal reading is plotted against compound concentration to determine the potency of the compounds (Fig. 3). […]. […] After the dye loaded, cells were placed in a FLIPR^TETRA fluorescence imaging plate reader (Molecular Devices); drug dilutions, prepared at 3× final concentration in FLIPR buffer and aliquotted into 384-well plates, were also added to the FLIPR^TETRA. The fluidics module and plate reader of the FLIPR^TETRA were programmed to read baseline fluorescence for 10 s (1 read/s), then to add 10 μl of drug/well and to read for 6 min (1 read/s). […]"}, "[3]": {"target": "T3, 5-HT2C receptor G218^5.42S (Homo sapiens, UniProt P28335, DEL255-298/G218S/G251D/H250E/H252N/INS299[…]/L248D/M247A/M300L/T253W)", "T3 construct": "the N- and C-terminals were truncated by 39 and 65 residues, respectively; PreScission protease site + 10× His (C); made in house", "T3 sequence (P28335 with tags, fused parts or gaps with the stated changes)": "as the sequence (P28335 with tags, fused parts or gaps with the stated changes limits assumed) above, with G179S counted along it", "assay": "CPM thermal stability assay, 5-HT2C mutant G218S", "assay_type": "binding", "from_the_text": "(§1) Based on the binding poses predicted by molecular docking, single-point mutations were designed to test their impact on ligand binding. Mutations of several residues include the highly conserved Asp134^3.32, which is known to cause 5-HT1B or 5-HT2B receptors to abolish the monoamine ligand binding as reported in the literature (Wang et al. [2013]). In this study, residues forming hydrophobic interactions with the substitution groups on the aporphine scaffold of (–)-crebanine (1) were selected for mutation as well and they are Thr139^3.37, Gly218^5.42, Ala222^5.46, and Leu209^ECL2. Effects of those mutations were tested with the CPM assay and the affinity MS assay (Table 2). In the affinity MS experiment, relative ligand-binding capacity (represented by binding %) to different mutants and the wild-type receptor was compared. […]\n(§2) Purified 5-HT2C receptor protein was thoroughly mixed with CPM fluorescent dyes. […] Fluorescence signals, wavelength 387 nm (excitation) and 463 nm (emission), were monitored (Alexandrov et al. [2008]). […] The thermal denaturation of the samples was evaluated using the scatter plot curve, where the horizontal coordinates represented temperature and the vertical coordinates indicated normalized fluorescence intensity recorded for a particular temperature. […]"}, "[4]": {"target": "T4, 5-HT2C receptor T139^3.37A (Homo sapiens, UniProt P28335, DEL255-298/G251D/H250E/H252N/INS299[…]/L248D/M247A/M300L/T139A/T253W)", "T4 construct": "the N- and C-terminals were truncated by 39 and 65 residues, respectively; PreScission protease site + 10× His (C); made in house", "T4 sequence (P28335 with tags, fused parts or gaps with the stated changes)": "as the sequence (P28335 with tags, fused parts or gaps with the stated changes limits assumed) above, with T100A counted along it", "assay": "CPM thermal stability assay, 5-HT2C mutant T139A", "assay_type": "binding", "conditions": "mutant T139^3.37A, n = 2", "from_the_text": "as §1, §2"}, "[5]": {"target": "T5, 5-HT2C receptor L209^ECL2F (Homo sapiens, UniProt P28335, DEL255-298/G251D/H250E/H252N/INS299[…]/L209F/L248D/M247A/M300L/T253W)", "T5 construct": "the N- and C-terminals were truncated by 39 and 65 residues, respectively; PreScission protease site + 10× His (C); made in house", "T5 sequence (P28335 with tags, fused parts or gaps with the stated changes)": "as the sequence (P28335 with tags, fused parts or gaps with the stated changes limits assumed) above, with L170F counted along it", "assay": "CPM thermal stability assay, 5-HT2C mutant L209F", "assay_type": "binding", "conditions": "n = 2", "from_the_text": "as §1, §2"}}, "note": "pIC50: −log10 of the molar value."}
{"smiles": "COc1ccc2c(c1OC)C[C@@H]1c3c(cc4c(c3-2)OCO4)CCN1C", "note": "[Compound 1, (–)-crebanine]", "values": [{"measurement": "thermal shift value (∆Tm)", "setting": "5-HT2C receptor [1]; CPM assay, comparing to apo-protein", "result": 9.25, "unit": "°C"}, {"measurement": "(–)-Crebanine/CPM (Tm)", "setting": "5-HT2C receptor [1]; WT receptor, n = 2", "result": 59.93, "unit": "°C"}, {"measurement": "(–)-Crebanine/MS relative ligand binding", "setting": "5-HT2C receptor [2]; WT receptor, n = 2, MS response of released ligand divided by total ligand in incubation sample", "result": 27.57, "unit": "%"}, {"measurement": "S/C", "setting": "5-HT2C receptor [2]; ratio of MS response in 5-HT2C incubation sample versus control (hydroxycarboxylic acid receptor 2), 500 nmol/L protein, 250 nmol/L ligand, n = 4", "result": "9.15 ± 1.43"}, {"measurement": "pIC50", "setting": "5-HT2A receptor", "result": 6.25}, {"measurement": "(–)-Crebanine/CPM (Tm)", "setting": "[3]; mutant G218^5.42S, n = 2", "result": 53.24, "unit": "°C"}, {"measurement": "Tm value decrease versus wild-type", "setting": "[3]; mutation Gly218^5.42Ser", "result": "over 6.0 °C"}, {"measurement": "(–)-Crebanine/CPM (Tm)", "setting": "[4]", "result": 54.63, "unit": "°C"}, {"measurement": "(–)-Crebanine/CPM (Tm)", "setting": "[5]", "result": 55.46, "unit": "°C"}]}
